Values of other authors as cited in US9393243B1 (priority 2015, dated 2016).
Where a name gives a salt, the structure may show the parent alone. Read-outs that look alike come from different tables or passages of the source.

Tests used:
[1] = aqueous solutions, about 0.2 to about 1 weight percent
[2] = tested on: a variety of bacterial pathogens; settings: typical value; T. L. Ke et al. 2001

| Molecule | pH at which precipitation was observed ([1]; 5° C.) | pH at which precipitation was observed ([1]; room temperature) | MIC90 [2] |
| --- | --- | --- | --- |
| O=C(O)c1cn(C2CC2)c2cc(N3CCNCC3)c(F)cc2c1=O [ciprofloxacin HCl] | above 5 | above 5.5 | – |
| O=C(O)c1cn(C2CC2)c2cc(N3CCNCC3)c(F)cc2c1=O [ciprofloxacin, 1-cyclopropyl-6-fluoro-1,4-dihydro-4-oxo-7-(1-piperazinyl)-3-quinolinecarboxylic acid] | – | – | around 0.5 μg/g |
| gentamycin | – | – | around 10 μg/gm |
